Test systems include SK-MEL-5 melanoma; HS 578T breast; A549 NSCLC; SF-268 CNS; ACHN renal; SN12C renal; RPMI-8226 leukemia; MOLT-4 leukemia; HCC-2998 colon; RXF 393 renal.
Holding throughout (experiment): NCI tumour cell line growth inhibition, 48 h

Values joined by “and” are separate entries in the source; they are usually repeats but may differ in a detail not shown here. Equal values may be shown once.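 How tested: cells in 96-well plates exposed to compound for 48 hours at five concentrations. The concentration for 50% growth inhibition is given as GI50. At the TGI there is no net growth.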

On to `Cc1ccc2nc3sc(=O)sc3nc2c1`, for which the TGI turned out to be 29.1 µM with SK-MEL-5 melanoma; 61.8 µM with HS 578T breast; 29.6 µM with A549 NSCLC; 30.1 µM in the test on SF-268 CNS; 28.5 µM in the test on ACHN renal; 29 µM with SN12C renal. Moreover, the TGI in the test on RPMI-8226 leukemia came out at 59.1 µM; in the test on MOLT-4 leukemia it was 50.1 µM; in the test on HCC-2998 colon, 30.2 µM; in the test with RXF 393 renal, 67.8 µM.
As for `Cc1cc(N2CCN(C)CC2)nc(N(CCNc2ccnc3cc(Cl)ccc23)Cc2ccco2)n1`, the GI50 is 1.77 µM with SK-MEL-5 melanoma; 4.42 µM in the test on HS 578T breast; 4.1 µM in the test on A549 NSCLC; 5.82 µM with SF-268 CNS; 5.08 µM in the test on ACHN renal; 8.88 µM in the test with SN12C renal. Further, the GI50 in the test with RPMI-8226 leukemia is 2.18 µM; in the test with MOLT-4 leukemia, 2.8 µM; in the test on HCC-2998 colon it was 2.65 µM; in the test on RXF 393 renal it was 1.82 µM. For the same molecule, the TGI in the test on SK-MEL-5 melanoma came out at 3.24 µM; with HS 578T breast, 35.7 µM; in the test on A549 NSCLC, 14.6 µM; with SF-268 CNS it was 20.3 µM; in the test with ACHN renal, 17.5 µM; in the test with SN12C renal, 21 µM. The TGI in the test with RPMI-8226 leukemia was 5.72 µM; in the test with MOLT-4 leukemia it was 10.9 µM; in the test on HCC-2998 colon, 11.1 µM; in the test with RXF 393 renal it was 4.88 µM.
Consider `COc1ccc(C2=NNC(c3cc(Cc4ccc(O)c(C5CC(c6ccc(OC)cc6)=NN5)c4)ccc3O)C2)cc1` (stereo not given), for which the GI50 was 1.76 µM with SK-MEL-5 melanoma; 5.58 µM in the test with HS 578T breast; 6.84 µM in the test with A549 NSCLC; 17.9 µM with SF-268 CNS; 5.56 µM with ACHN renal; 8.84 µM in the test with SN12C renal. The GI50 is 9.89 µM in the test with RPMI-8226 leukemia, 17.8 µM in the test on MOLT-4 leukemia, 46 µM with HCC-2998 colon and 4.18 µM in the test on RXF 393 renal. In addition, the TGI in the test with SK-MEL-5 melanoma was 6.4 µM; with HS 578T breast, 68 µM; in the test with A549 NSCLC, above 100 µM; in the test with SF-268 CNS, above 100 µM; with ACHN renal, above 100 µM; in the test on SN12C renal it was above 100 µM. In addition, the TGI was above 100 µM in the test with RPMI-8226 leukemia, above 100 µM in the test with MOLT-4 leukemia, above 100 µM with HCC-2998 colon and 48.3 µM in the test with RXF 393 renal.
As to `Cc1cc2oc(=O)c(Cl)c(Cl)c2c(C)c1Cl`, the TGI worked out at 19.2 µM in the test on SK-MEL-5 melanoma; 9.64 µM in the test on HS 578T breast; 37.3 µM with A549 NSCLC; 11.5 µM with SF-268 CNS; 23.3 µM with ACHN renal; 24.5 µM with SN12C renal. The TGI is 6 µM in the test on RPMI-8226 leukemia, 5.21 µM with MOLT-4 leukemia, 14.1 µM in the test on HCC-2998 colon and 6.03 µM in the test with RXF 393 renal.
Regarding `O=C(CCCCCNC1=CC(=O)c2ccccc2C1=O)NCCC[Te]c1ccccc1`, the GI50 in the test on SK-MEL-5 melanoma was 1.37 µM; in the test on HS 578T breast it was 0.364 µM; with A549 NSCLC, 0.32 µM; in the test with SF-268 CNS, 0.359 µM; in the test with ACHN renal, 0.408 µM; in the test on SN12C renal, 0.331 µM. Moreover, the GI50 in the test on RPMI-8226 leukemia was 0.291 µM; in the test on MOLT-4 leukemia, 0.258 µM; with HCC-2998 colon, 0.798 µM; in the test on RXF 393 renal it was 1.54 µM. Moreover, the TGI came out at 2.67 µM with SK-MEL-5 melanoma; 2.65 µM with HS 578T breast; 1.54 µM in the test with A549 NSCLC; 1.41 µM in the test on SF-268 CNS; 1.49 µM with ACHN renal; 1.56 µM in the test on SN12C renal. Besides, the TGI was determined as 1.04 µM with RPMI-8226 leukemia, 0.746 µM with MOLT-4 leukemia, 2.44 µM in the test on HCC-2998 colon and 4.11 µM with RXF 393 renal.
Consider `O=C(NC1CCNCC1)c1[nH]ncc1NC(=O)c1c(Cl)cccc1Cl`, for which the GI50 in the test with SK-MEL-5 melanoma is 2.44 µM and 0.961 µM; in the test with HS 578T breast, 0.307 µM and 0.329 µM; in the test on A549 NSCLC, 0.637 µM and 0.86 µM; in the test with SF-268 CNS, 0.343 µM and 0.352 µM; in the test with ACHN renal, 2.95 µM and 3.03 µM; with SN12C renal, 1.24 µM and 0.387 µM. Also, the GI50 in the test on RPMI-8226 leukemia was 0.329 µM and 0.313 µM; in the test on MOLT-4 leukemia, 0.357 µM and 0.329 µM; in the test on HCC-2998 colon, 0.396 µM and 0.328 µM; in the test on RXF 393 renal, 0.236 µM and 0.202 µM. Also, the TGI in the test on SK-MEL-5 melanoma is 7.67 µM and 5.53 µM; in the test with HS 578T breast, 3.83 µM and > 2.71 µM; in the test on A549 NSCLC, above 100 µM; with SF-268 CNS, 3.82 µM and > 7.39 µM; in the test on ACHN renal, above 100 µM; with SN12C renal, above 50.3 µM. The TGI was 0.999 µM and > 2.62 µM in the test with RPMI-8226 leukemia; 1.49 µM and > 10 µM with MOLT-4 leukemia; 12 µM and > 6.08 µM with HCC-2998 colon; 0.635 µM and 0.464 µM with RXF 393 renal.
Take `NC(Cn1ccc(=O)c(O)c1)C(=O)O` (stereo not given): the TGI with SK-MEL-5 melanoma, with HS 578T breast, in the test with A549 NSCLC, in the test on SF-268 CNS, with ACHN renal and in the test with SN12C renal was above 100 µM in each case. Moreover, the TGI in the test with RPMI-8226 leukemia, with MOLT-4 leukemia, in the test with HCC-2998 colon and with RXF 393 renal was above 100 µM throughout.
On to `C[C@@H](Oc1cc(-c2cnn(C3CC4(CNC4)C3)c2)cnc1N)c1c(Cl)ccc(F)c1Cl`, for which the GI50 is 3.92 µM with SK-MEL-5 melanoma; 3.87 µM in the test with HS 578T breast; 3.09 µM with A549 NSCLC; 4.19 µM with SF-268 CNS; 4.89 µM with ACHN renal; 2.59 µM with SN12C renal. Besides, the GI50 in the test with RPMI-8226 leukemia was 3.22 µM; in the test with MOLT-4 leukemia, 1.03 µM; in the test with HCC-2998 colon, 5.42 µM; in the test with RXF 393 renal, 3.39 µM. Besides, the TGI amounted to 12.2 µM with SK-MEL-5 melanoma; 27.1 µM with HS 578T breast; 12.6 µM in the test on A549 NSCLC; 18.2 µM in the test on SF-268 CNS; 18.3 µM in the test with ACHN renal; 13.8 µM with SN12C renal. For the same molecule, the TGI with RPMI-8226 leukemia is 13 µM; in the test on MOLT-4 leukemia, 7.27 µM; in the test with HCC-2998 colon, 19.7 µM; in the test with RXF 393 renal, 12.7 µM.
Consider `S=C(Nc1ccc(Cl)cc1)SC1CCCCC1`, for which the TGI in the test on SK-MEL-5 melanoma was 30.5 µM; with HS 578T breast, above 100 µM; in the test on A549 NSCLC, 56.4 µM; with SF-268 CNS, 84.9 µM; with ACHN renal, 36.6 µM; with SN12C renal, 51.3 µM. Further, the TGI with RPMI-8226 leukemia is above 100 µM; with MOLT-4 leukemia, 92.4 µM; with HCC-2998 colon, 39.3 µM; in the test with RXF 393 renal, 58.9 µM.
As for `COc1cccc(C(C#N)NC23CC4CC(CC(C4)C2)C3)c1` (stereo not given), the TGI in the test with SK-MEL-5 melanoma, with HS 578T breast, with A549 NSCLC, with SF-268 CNS, with ACHN renal and in the test with SN12C renal was above 100 µM throughout. Besides, the TGI with RPMI-8226 leukemia, in the test with MOLT-4 leukemia, in the test with HCC-2998 colon and with RXF 393 renal was above 100 µM throughout.

Source of the values: PubChem BioAssay (NCI).
